#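 Growth conditions: 96-well plates. Treatment: test compound, 48 hours, 5 concentrations. Analysis: linear interpolation between bracketing concentrations; unreached endpoints set to highest concentration. At the GI50, growth is halved.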 Calls of active or inactive are those of the source. Cut-off read from the data, not from the text of the source: active = GI50 up to about 1.1 µM and inactive = higher.
# Legend:
# Assay in all cases: inhibition of tumour cell growth, NCI panel, 48 h
# UACC-62 = system: UACC-62
# LOX IMVI = system: LOX IMVI
# HCT-15 = system: HCT-15
# COLO 205 = system: COLO 205
# RXF 393 = system: RXF 393
# HL-60 = system: HL-60
# MCF7 = system: MCF7
# SW-620 = system: SW-620
# T47D = system: T47D
# Malme-3M = system: Malme-3M
# MDA-MB-231 = system: MDA-MB-231
# HCT-116 = system: HCT-116
# SR = system: SR
# SN12C = system: SN12C
# SK-OV-3 = system: SK-OV-3
# MDA-N = system: MDA-N
# A498 = system: A498
# SK-MEL-28 = system: SK-MEL-28
# ACHN = system: ACHN
Compound,GI50 (UACC-62),GI50 (LOX IMVI),GI50 (HCT-15),GI50 (COLO 205),GI50 (RXF 393),GI50 (HL-60),GI50 (MCF7),GI50 (SW-620),GI50 (T47D),GI50 (Malme-3M),GI50 (MDA-MB-231),GI50 (HCT-116),GI50 (SR),GI50 (SN12C),GI50 (SK-OV-3),GI50 (MDA-N),GI50 (A498),GI50 (SK-MEL-28),GI50 (ACHN)
CSc1c(C(=O)Nc2ccccc2)c(N)n(N)c(=O)c1C#N,> 100 µM (inactive),> 100 µM (inactive),> 100 µM,> 100 µM (inactive),> 100 µM (inactive),> 100 µM (inactive),> 100 µM (inactive),> 100 µM (inactive),> 100 µM (inactive),> 100 µM (inactive),> 100 µM (inactive),> 100 µM (inactive),> 100 µM (inactive),> 100 µM (inactive),> 100 µM (inactive),> 100 µM (inactive),30.5 µM (inactive),> 100 µM (inactive),–
Cc1cc(N)ccc1C=O,> 100 µM (inactive),> 100 µM (inactive),> 100 µM,> 100 µM (inactive),> 100 µM (inactive),> 100 µM (inactive),> 100 µM (inactive),> 100 µM (inactive),> 100 µM (inactive),> 100 µM (inactive),> 100 µM (inactive),> 100 µM (inactive),> 100 µM (inactive),> 100 µM (inactive),> 100 µM (inactive),> 100 µM (inactive),> 100 µM (inactive),> 100 µM (inactive),> 100 µM (inactive)
CC1=C(CO)C2=C(C)C3(CC3)[C@@](C)(O)C(=O)C2=C1 [IROFULVEN],–,0.582 µM (active),0.29 µM,0.166 µM (active),0.0507 µM (active),0.237 µM (active),0.242 µM (active),0.614 µM (active),0.218 µM (active),0.218 µM (active),0.303 µM (active),0.21 µM (active),0.792 µM (active),0.409 µM (active),0.248 µM (active),1.04 µM (active),0.179 µM (active),0.582 µM (active),0.262 µM (active)
O=C1NC(=O)C(Cc2ccccc2)(c2cccnc2)N1 (stereo not given),> 100 µM (inactive),> 100 µM (inactive),> 100 µM,> 100 µM (inactive),> 100 µM (inactive),> 100 µM (inactive),> 100 µM (inactive),> 100 µM (inactive),> 100 µM (inactive),> 100 µM (inactive),> 100 µM (inactive),> 100 µM (inactive),> 100 µM (inactive),> 100 µM (inactive),> 100 µM (inactive),> 100 µM (inactive),> 100 µM (inactive),> 100 µM (inactive),> 100 µM (inactive)
COc1ccc(N2CCOCC2)cc1,> 100 µM (inactive),–,> 100 µM,> 100 µM (inactive),> 100 µM (inactive),> 100 µM (inactive),> 100 µM (inactive),> 100 µM (inactive),> 100 µM (inactive),> 100 µM (inactive),> 100 µM (inactive),> 100 µM (inactive),> 100 µM (inactive),> 100 µM (inactive),> 100 µM (inactive),> 100 µM (inactive),> 100 µM (inactive),> 100 µM (inactive),> 100 µM (inactive)
CC(C)(C)N1C(=O)c2ccccc2C1(O)C(F)(F)F (stereo not given),> 100 µM (inactive),> 100 µM (inactive),> 100 µM,> 100 µM (inactive),> 100 µM (inactive),> 100 µM (inactive),> 100 µM (inactive),> 100 µM (inactive),53.6 µM (inactive),38 µM (inactive),> 100 µM (inactive),> 100 µM (inactive),> 100 µM (inactive),> 100 µM (inactive),> 100 µM (inactive),84.9 µM (inactive),> 100 µM (inactive),> 100 µM (inactive),> 100 µM (inactive)
CCN(Cc1cc(Cl)cc(C)c1O)Cc1c(O)ccc2ccccc12,15.7 µM (inactive),18.2 µM (inactive),14.6 µM,22.7 µM (inactive),16.4 µM (inactive),12 µM (inactive),19.9 µM (inactive),25.4 µM (inactive),16.6 µM (inactive),14.5 µM (inactive),18.4 µM (inactive),16.7 µM (inactive),16.2 µM (inactive),18.2 µM (inactive),15.2 µM (inactive),18.1 µM (inactive),18.7 µM (inactive),17.9 µM (inactive),17.3 µM (inactive)
